Test results as given in PubChem BioAssay AID2060624 (Molecular Pharmacology Branch, DTP, NCI, 2025).
pIC50: −log10 of the molar value.

Test system: 217524-143-R1-J4-PDC spheroids with HUVEC/MSC, viability
Assay: Anticancer human tumor 217524-143-R1-J4-PDC patient-derived pancreatic carcinoma cell line growth inhibition [CLK]
Conditions: for pIC50: curve of first compound; for viability, T/C: stronger effect = lower value
How it was run: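 Patient-derived tumor cells grown as complex spheroids with HUVEC endothelial cells and mesenchymal stem cells, treated with drug combinations. Concentrations descend in half-log steps from near clinical Cmax, or from 10 microM if Cmax unknown.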

[1] = second compound 0.0316 µM, first compound 0.0316 µM
[2] = second compound 0.0316 µM, first compound 0.1 µM
[3] = second compound 0.0316 µM, first compound 0.316 µM
[4] = second compound 0.0316 µM, first compound 1 µM
[5] = second compound 0.0316 µM, first compound 3.16 µM
[6] = second compound 0.0316 µM, first compound 10 µM
[7] = second compound 0.1 µM, first compound 0.0316 µM
[8] = second compound 0.1 µM, first compound 0.1 µM
[9] = second compound 0.1 µM, first compound 0.316 µM
[10] = second compound 0.1 µM, first compound 1 µM
[11] = second compound 0.1 µM, first compound 3.16 µM
[12] = second compound 0.1 µM, first compound 10 µM
[13] = second compound 0.316 µM, first compound 0.0316 µM
[14] = second compound 0.316 µM, first compound 0.1 µM
[15] = second compound 0.316 µM, first compound 0.316 µM
[16] = second compound 0.316 µM, first compound 1 µM
[17] = second compound 0.316 µM, first compound 3.16 µM
[18] = second compound 0.316 µM, first compound 10 µM
[19] = second compound 1 µM, first compound 0.0316 µM
[20] = second compound 1 µM, first compound 0.1 µM
[21] = second compound 1 µM, first compound 0.316 µM
[22] = second compound 1 µM, first compound 1 µM
[23] = second compound 1 µM, first compound 3.16 µM
[24] = second compound 1 µM, first compound 10 µM
[25] = second compound 3.16 µM, first compound 0.0316 µM
[26] = second compound 3.16 µM, first compound 0.1 µM
[27] = second compound 3.16 µM, first compound 0.316 µM
[28] = second compound 3.16 µM, first compound 1 µM
[29] = second compound 3.16 µM, first compound 3.16 µM
[30] = second compound 3.16 µM, first compound 10 µM
[31] = second compound 10 µM, first compound 0.0316 µM
[32] = second compound 10 µM, first compound 0.1 µM
[33] = second compound 10 µM, first compound 0.316 µM
[34] = second compound 10 µM, first compound 1 µM
[35] = second compound 10 µM, first compound 3.16 µM
[36] = second compound 10 µM, first compound 10 µM
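Further: spheroids exposed to agents for seven days before reading.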
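Wherever viability, T/C is given: 100% = DMSO vehicle control viability.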

Structure (SMILES): COc1ccc([C@@H](O)c2cc(-c3ncnc4cc(N5CCOCC5)ccc34)c(F)cc2Cl)nn1 + CN1CCN(c2cc(C(=O)Nc3cc4cc(-c5cnn(C)c5)ccc4cn3)ccn2)CC1
- pIC50 (second compound 0.0316 µM): 6.55
- pIC50 (second compound 0.1 µM): > 7.50
- pIC50 (second compound 0.316 µM): > 7.50
- pIC50 (second compound 1 µM): > 7.50
- pIC50 (second compound 3.16 µM): > 7.50
- pIC50 (second compound 10 µM): > 7.50
- viability, T/C [1]: 70.4%
- viability, T/C [2]: 59.8%
- viability, T/C [3]: 46.9%
- viability, T/C [4]: 38.5%
- viability, T/C [5]: 26.1%
- viability, T/C [6]: 10.6%
- viability, T/C [7]: 39.6%
- viability, T/C [8]: 50.7%
- viability, T/C [9]: 29.8%
- viability, T/C [10]: 24.4%
- viability, T/C [11]: 16.2%
- viability, T/C [12]: 10%
- viability, T/C [13]: 18.1%
- viability, T/C [14]: 18.4%
- viability, T/C [15]: 15%
- viability, T/C [16]: 13.4%
- viability, T/C [17]: 10.7%
- viability, T/C [18]: 6.07%
- viability, T/C [19]: 1.28%
- viability, T/C [20]: 0.91%
- viability, T/C [21]: 1.1%
- viability, T/C [22]: 0.93%
- viability, T/C [23]: 0.91%
- viability, T/C [24]: 0.91%
- viability, T/C [25]: 0.52%
- viability, T/C [26]: 0.54%
- viability, T/C [27]: 0.73%
- viability, T/C [28]: 0.44%
- viability, T/C [29]: 1.02%
- viability, T/C [30]: 1.29%
- viability, T/C [31]: 0.08%
- viability, T/C [32]: 0.12%
- viability, T/C [33]: 0.21%
- viability, T/C [34]: 0.18%
- viability, T/C [35]: 0.22%
- viability, T/C [36]: 0.36%

Structure (SMILES): COc1cccc2c1C(=O)c1c(O)c3c(c(O)c1C2=O)CC(O)(C(=O)CO)CC3OC1CC(N)C(O)C(C)O1 (stereo not given) + CN1CCN(c2cc(C(=O)Nc3cc4cc(-c5cnn(C)c5)ccc4cn3)ccn2)CC1
- pIC50 (second compound 0.0316 µM): > 7.50
- pIC50 (second compound 0.1 µM): > 7.50
- pIC50 (second compound 0.316 µM): > 7.50
- pIC50 (second compound 1 µM): > 7.50
- pIC50 (second compound 3.16 µM): > 7.50
- pIC50 (second compound 10 µM): > 7.50
- viability, T/C [1]: 31.5%
- viability, T/C [2]: 22.6%
- viability, T/C [3]: 18.3%
- viability, T/C [4]: 12.8%
- viability, T/C [5]: 3.21%
- viability, T/C [6]: 1.12%
- viability, T/C [7]: 23.1%
- viability, T/C [8]: 19.4%
- viability, T/C [9]: 13.4%
- viability, T/C [10]: 11.9%
- viability, T/C [11]: 2.23%
- viability, T/C [12]: 1.21%
- viability, T/C [13]: 15.5%
- viability, T/C [14]: 11.4%
- viability, T/C [15]: 6.94%
- viability, T/C [16]: 3.93%
- viability, T/C [17]: 1.19%
- viability, T/C [18]: 1.44%
- viability, T/C [19]: 0.79%
- viability, T/C [20]: 1.09%
- viability, T/C [21]: 0.55%
- viability, T/C [22]: 0.99%
- viability, T/C [23]: 1.55%
- viability, T/C [24]: 2.46%
- viability, T/C [25]: 0.79%
- viability, T/C [26]: 0.89%
- viability, T/C [27]: 0.61%
- viability, T/C [28]: 0.96%
- viability, T/C [29]: 1.17%
- viability, T/C [30]: 0.55%
- viability, T/C [31]: 0.18%
- viability, T/C [32]: 0.12%
- viability, T/C [33]: 0.13%
- viability, T/C [34]: 0.13%
- viability, T/C [35]: 0.11%
- viability, T/C [36]: 0.12%

Structure (SMILES): C=CC(=O)N1CCN(c2nc(=O)n(-c3c(C)ccnc3C(C)C)c3nc(-c4c(O)cccc4F)c(F)cc23)C(C)C1 (stereo not given) + CNC(=O)c1ccc(Nc2nc(OC3CCCC3)c3c(-c4ccc5nc(C)oc5c4)c[nH]c3n2)c(OC)c1
- pIC50 (second compound 0.0316 µM): < 5.00
- pIC50 (second compound 0.1 µM): > 7.50
- pIC50 (second compound 0.316 µM): > 7.50
- pIC50 (second compound 1 µM): > 7.50
- pIC50 (second compound 3.16 µM): > 7.50
- pIC50 (second compound 10 µM): > 7.50
- viability, T/C [1]: 99.7%
- viability, T/C [2]: 96.5%
- viability, T/C [3]: 82.2%
- viability, T/C [4]: 102%
- viability, T/C [5]: 123%
- viability, T/C [6]: 118%
- viability, T/C [7]: 44.1%
- viability, T/C [8]: 47.4%
- viability, T/C [9]: 41.4%
- viability, T/C [10]: 49.9%
- viability, T/C [11]: 58.5%
- viability, T/C [12]: 55.8%
- viability, T/C [13]: 34.6%
- viability, T/C [14]: 31.3%
- viability, T/C [15]: 50.8%
- viability, T/C [16]: 41.4%
- viability, T/C [17]: 49%
- viability, T/C [18]: 43.4%
- viability, T/C [19]: 24.7%
- viability, T/C [20]: 27.6%
- viability, T/C [21]: 32.8%
- viability, T/C [22]: 39.2%
- viability, T/C [23]: 36.4%
- viability, T/C [24]: 30%
- viability, T/C [25]: 24.9%
- viability, T/C [26]: 29.8%
- viability, T/C [27]: 31%
- viability, T/C [28]: 30.2%
- viability, T/C [29]: 36.8%
- viability, T/C [30]: 27.9%
- viability, T/C [31]: 27.9%
- viability, T/C [32]: 27.9%
- viability, T/C [33]: 31.7%
- viability, T/C [34]: 31.9%
- viability, T/C [35]: 34.2%
- viability, T/C [36]: 29.1%

Structure (SMILES): CCCS(=O)(=O)Nc1ccc(F)c(C(=O)c2c[nH]c3ncc(-c4ccc(Cl)cc4)cc23)c1F + CNC(=O)c1ccc(Nc2nc(OC3CCCC3)c3c(-c4ccc5nc(C)oc5c4)c[nH]c3n2)c(OC)c1
- pIC50 (second compound 0.0316 µM): < 5.00
- pIC50 (second compound 0.1 µM): > 7.50
- pIC50 (second compound 0.316 µM): > 7.50
- pIC50 (second compound 1 µM): > 7.50
- pIC50 (second compound 3.16 µM): > 7.50
- pIC50 (second compound 10 µM): > 7.50
- viability, T/C [1]: 76.2%
- viability, T/C [2]: 83%
- viability, T/C [3]: 99.1%
- viability, T/C [4]: 130%
- viability, T/C [5]: 139%
- viability, T/C [6]: 57.1%
- viability, T/C [7]: 40.1%
- viability, T/C [8]: 49.2%
- viability, T/C [9]: 49.9%
- viability, T/C [10]: 67.3%
- viability, T/C [11]: 76.6%
- viability, T/C [12]: 40.1%
- viability, T/C [13]: 41.5%
- viability, T/C [14]: 38.8%
- viability, T/C [15]: 45.6%
- viability, T/C [16]: 58.1%
- viability, T/C [17]: 59.2%
- viability, T/C [18]: 31.2%
- viability, T/C [19]: 35.1%
- viability, T/C [20]: 35.1%
- viability, T/C [21]: 46.9%
- viability, T/C [22]: 45%
- viability, T/C [23]: 49.3%
- viability, T/C [24]: 24.1%
- viability, T/C [25]: 32.1%
- viability, T/C [26]: 31.6%
- viability, T/C [27]: 34.6%
- viability, T/C [28]: 47.6%
- viability, T/C [29]: 42.1%
- viability, T/C [30]: 17.6%
- viability, T/C [31]: 29.6%
- viability, T/C [32]: 26.5%
- viability, T/C [33]: 38.7%
- viability, T/C [34]: 34.9%
- viability, T/C [35]: 42%
- viability, T/C [36]: 18%

Structure (SMILES): COC1C=CCC(C)C(C)S(=O)(=O)NC(=O)c2ccc3c(c2)N(CC2CCC21)CC1(CCCc2cc(Cl)ccc21)CO3 (stereo not given) + CNC(=O)c1ccc(Nc2nc(OC3CCCC3)c3c(-c4ccc5nc(C)oc5c4)c[nH]c3n2)c(OC)c1
- pIC50 (second compound 0.0316 µM): 5.11
- pIC50 (second compound 0.1 µM): > 7.50
- pIC50 (second compound 0.316 µM): > 7.50
- pIC50 (second compound 1 µM): > 7.50
- pIC50 (second compound 3.16 µM): > 7.50
- pIC50 (second compound 10 µM): > 7.50
- viability, T/C [1]: 83.2%
- viability, T/C [2]: 91.3%
- viability, T/C [3]: 95.8%
- viability, T/C [4]: 114%
- viability, T/C [5]: 108%
- viability, T/C [6]: 35.6%
- viability, T/C [7]: 46.6%
- viability, T/C [8]: 43.9%
- viability, T/C [9]: 72.9%
- viability, T/C [10]: 75.3%
- viability, T/C [11]: 91.2%
- viability, T/C [12]: 33.1%
- viability, T/C [13]: 34.2%
- viability, T/C [14]: 38.8%
- viability, T/C [15]: 39.4%
- viability, T/C [16]: 29.6%
- viability, T/C [17]: 31.9%
- viability, T/C [18]: 33.7%
- viability, T/C [19]: 30.1%
- viability, T/C [20]: 29.3%
- viability, T/C [21]: 27.4%
- viability, T/C [22]: 22.1%
- viability, T/C [23]: 20.9%
- viability, T/C [24]: 24.2%
- viability, T/C [25]: 26.9%
- viability, T/C [26]: 25.1%
- viability, T/C [27]: 22.3%
- viability, T/C [28]: 20.6%
- viability, T/C [29]: 23.5%
- viability, T/C [30]: 23.9%
- viability, T/C [31]: 29.8%
- viability, T/C [32]: 21%
- viability, T/C [33]: 17.9%
- viability, T/C [34]: 18.5%
- viability, T/C [35]: 17.5%
- viability, T/C [36]: 22.3%
